Source: ChEMBL document CHEMBL1127439, “Structure-activity relationship studies of central nervous system agents. 13. 4-[3-(Benzotriazol-1-yl)propyl]-1-(2-methoxyphenyl)piperazine, a new putative 5-HT1A receptor antagonist, and its analogs” (J Med Chem, 1994)

Key:
Mus musculus [1] = test: Effect on 8-OH-DPAT-induced hypothermia in mice (5 mg/kg) at intraperitoneal dosage of 4 mg/kg of compound after 30 mins. Values expressed as +/- SEM; assay type: functional
Rattus norvegicus [2] = test: Tested for the effect on 8-OH-DPAT-induced behavior in reserpine pretreated rat against forepaw treading at dosage of 16 mg/kg; assay type: functional
Mus musculus [3] = test: Effect on 8-OH-DPAT-induced hypothermia in mice (5 mg/kg) at intraperitoneal dosage of 8 mg/kg of compound after 45 mins. Values expressed as +/- SEM; assay type: functional
Mus musculus [4] = test: Effect on 8-OH-DPAT-induced hypothermia in mice (5 mg/kg) at intraperitoneal dosage of 4 mg/kg of compound after 45 mins. Values expressed as +/- SEM; assay type: functional
Rattus norvegicus [5] = test: Tested for the effect on 8-OH-DPAT-induced lower lip retraction (LLR) in rat at dosage of 16 mg/kg; assay type: functional
Mus musculus [6] = test: Effect on 8-OH-DPAT-induced hypothermia in mice (5 mg/kg) at intraperitoneal dosage of 16 mg/kg of compound after 30 mins; assay type: functional
[7] = molecular target: T1, 5-hydroxytryptamine receptor 1A (Rattus norvegicus, UniProt P19327); test: Tested in vitro for receptor binding affinity against 5-hydroxytryptamine 1A receptor using radioligand [3H]8-OH-DPAT
T1 sequence (P19327 whole entry): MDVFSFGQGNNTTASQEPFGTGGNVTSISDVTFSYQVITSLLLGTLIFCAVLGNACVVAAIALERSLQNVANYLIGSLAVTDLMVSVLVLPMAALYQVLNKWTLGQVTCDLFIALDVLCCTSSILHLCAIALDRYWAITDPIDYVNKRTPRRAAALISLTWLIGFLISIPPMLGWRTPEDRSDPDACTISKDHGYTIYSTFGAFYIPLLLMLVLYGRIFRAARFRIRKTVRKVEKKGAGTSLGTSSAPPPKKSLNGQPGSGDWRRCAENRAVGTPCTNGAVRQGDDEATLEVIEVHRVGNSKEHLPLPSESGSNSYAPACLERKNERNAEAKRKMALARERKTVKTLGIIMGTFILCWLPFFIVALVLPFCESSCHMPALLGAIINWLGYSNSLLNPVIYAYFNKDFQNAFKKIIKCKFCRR

Rattus norvegicus [8] = test: Tested for the induction of lower lip retraction (LLR) by the investigated compounds in rat at dosage of 4 mg/kg; assay type: functional
Mus musculus [9] = test: Effect on 8-OH-DPAT-induced hypothermia in mice (5 mg/kg) at intraperitoneal dosage of 16 mg/kg of compound after 45 mins; assay type: functional
Mus musculus [10] = test: Effect on 8-OH-DPAT-induced hypothermia in mice (5 mg/kg) at intraperitoneal dosage of 8 mg/kg of compound after 15 mins. Values expressed as +/- SEM; assay type: functional
Rattus norvegicus [11] = test: Tested for the effect on 8-OH-DPAT-induced lower lip retraction (LLR) in rat at dosage of 8 mg/kg; assay type: functional
Rattus norvegicus [12] = test: Tested for the induction of lower lip retraction (LLR) by the investigated compounds in rat at dosage of 8 mg/kg; assay type: functional
Mus musculus [13] = test: Effect on 8-OH-DPAT-induced hypothermia in mice (5 mg/kg) at intraperitoneal dosage of 8 mg/kg of compound after 60 mins; assay type: functional
Mus musculus [14] = test: Effect on 8-OH-DPAT-induced hypothermia in mice (5 mg/kg) at intraperitoneal dosage of 16 mg/kg of compound after 60 mins; assay type: functional
Rattus norvegicus [15] = test: Tested for the induction of lower lip retraction (LLR) by the investigated compounds in rat at dosage of 2 mg/kg; assay type: functional
Mus musculus [16] = test: Effect on 8-OH-DPAT-induced hypothermia in mice (5 mg/kg) at intraperitoneal dosage of 16 mg/kg of compound after 15 mins; assay type: functional
Mus musculus [17] = test: Effect on 8-OH-DPAT-induced hypothermia in mice (5 mg/kg) at intraperitoneal dosage of 4 mg/kg of compound after 60 mins. Values expressed as +/- SEM; assay type: functional
Rattus norvegicus [18] = test: Tested for the effect on 8-OH-DPAT-induced behavior in reserpine pretreated rat against forepaw treading at dosage of 4 mg/kg; assay type: functional
Rattus norvegicus [19] = test: Tested for the effect on 8-OH-DPAT-induced lower lip retraction (LLR) in rat at dosage of 2 mg/kg; assay type: functional
Rattus norvegicus [20] = test: Tested for the effect on 8-OH-DPAT-induced behavior in reserpine pretreated rat against flat body posture at dosage of 8 mg/kg; assay type: functional
Rattus norvegicus [21] = species on record: Rattus norvegicus; test: Selectivity is the ratio between Ki values of 5-HT2 and 5-HT1A
Mus musculus [22] = test: Effect on 8-OH-DPAT-induced hypothermia in mice (5 mg/kg) at intraperitoneal dosage of 4 mg/kg of compound after 15 mins. Values expressed as +/- SEM; assay type: functional
Rattus norvegicus [23] = test: Tested for the effect on 8-OH-DPAT-induced lower lip retraction (LLR) in rat at dosage of 4 mg/kg; assay type: functional
Rattus norvegicus [24] = test: Tested for the effect on 8-OH-DPAT-induced behavior in reserpine pretreated rat against forepaw treading at dosage of 8 mg/kg; assay type: functional
Rattus norvegicus [25] = test: Tested for the induction of lower lip retraction (LLR) by the investigated compounds in rat at dosage of 16 mg/kg; assay type: functional
Rattus norvegicus [26] = test: Tested for the effect on 8-OH-DPAT-induced behavior in reserpine pretreated rat against flat body posture at dosage of 16 mg/kg; assay type: functional
Mus musculus [27] = test: Effect on 8-OH-DPAT-induced hypothermia in mice (5 mg/kg) at intraperitoneal dosage of 8 mg/kg of compound after 30 mins. Values expressed as +/- SEM; assay type: functional
[28] = molecular target: Serotonin 2 (5-HT2) receptor (Rattus norvegicus, UniProt P30994+P08909+P14842); test: Tested in vitro for receptor binding affinity against 5-hydroxytryptamine 2 receptor using radioligand [3H]ketanserin; assay type: protein assay
Rattus norvegicus [29] = test: Tested for the effect on 8-OH-DPAT-induced behavior in reserpine pretreated rat against flat body posture at dosage of 4 mg/kg; assay type: functional
Mus musculus [30] = test: Effect on body temperature in mice at intraperitoneal dosage of 16 mg/kg, (compound administered 30 min before the test) after 75 min; assay type: functional
Mus musculus [31] = test: Effect on body temperature in mice at intraperitoneal dosage of 4 mg/kg, (compound administered 30 min before the test) after 45 min; assay type: functional
Mus musculus [32] = test: Effect on 8-OH-DPAT-induced hypothermia in mice (5 mg/kg) at intraperitoneal dosage of 4 mg/kg of compound after 60 mins; assay type: functional
Mus musculus [33] = test: Effect on body temperature in mice at intraperitoneal dosage of 16 mg/kg, (compound administered 30 min before the test) after 60 min; assay type: functional
Mus musculus [34] = test: Effect on body temperature in mice at intraperitoneal dosage of 8 mg/kg, (compound administered 30 min before the test) after 60 min; assay type: functional
Mus musculus [35] = test: Effect on 8-OH-DPAT-induced hypothermia in mice (5 mg/kg) at intraperitoneal dosage of 4 mg/kg of compound after 15 mins; assay type: functional
Mus musculus [36] = test: Effect on body temperature in mice at intraperitoneal dosage of 4 mg/kg, (compound administered 30 min before the test) after 30 min; assay type: functional
Mus musculus [37] = test: Effect on 8-OH-DPAT-induced hypothermia in mice (5 mg/kg) at intraperitoneal dosage of 4 mg/kg of compound after 45 mins; assay type: functional
Mus musculus [38] = test: Effect on 8-OH-DPAT-induced hypothermia in mice (5 mg/kg) at intraperitoneal dosage of 4 mg/kg of compound after 30 mins; assay type: functional
Mus musculus [39] = test: Effect on body temperature in mice at intraperitoneal dosage of 8 mg/kg, (compound administered 30 min before the test) after 75 min; assay type: functional
Mus musculus [40] = test: Effect on body temperature in mice at intraperitoneal dosage of 4 mg/kg, (compound administered 30 min before the test) after 90 min; assay type: functional
Mus musculus [41] = test: Effect on body temperature in mice at intraperitoneal dosage of 8 mg/kg, (compound administered 30 min before the test) after 30 min; assay type: functional
Mus musculus [42] = test: Effect on body temperature in mice at intraperitoneal dosage of 8 mg/kg, (compound administered 30 min before the test) after 45 min; assay type: functional
Mus musculus [43] = test: Effect on body temperature in mice at intraperitoneal dosage of 16 mg/kg, (compound administered 30 min before the test) after 30 min; assay type: functional
Mus musculus [44] = test: Effect on body temperature in mice at intraperitoneal dosage of 4 mg/kg, (compound administered 30 min before the test) after 60 min; assay type: functional
Mus musculus [45] = test: Effect on 8-OH-DPAT-induced hypothermia in mice (5 mg/kg) at intraperitoneal dosage of 8 mg/kg of compound after 30 mins; assay type: functional
Mus musculus [46] = test: Effect on 8-OH-DPAT-induced hypothermia in mice (5 mg/kg) at intraperitoneal dosage of 8 mg/kg of compound after 15 mins; assay type: functional
Mus musculus [47] = test: Effect on body temperature in mice at intraperitoneal dosage of 8 mg/kg, (compound administered 30 min before the test) after 90 min; assay type: functional
Mus musculus [48] = test: Effect on 8-OH-DPAT-induced hypothermia in mice (5 mg/kg) at intraperitoneal dosage of 8 mg/kg of compound after 45 mins; assay type: functional
Mus musculus [49] = test: effect on body temperature in mice at intraperitoneal dosage of 16 mg/kg, (compound administered 30 min before the test) after 45 min; assay type: functional
Mus musculus [50] = test: Effect on body temperature in mice at intraperitoneal dosage of 16 mg/kg, (compound administered 30 min before the test) after 90 min; assay type: functional
Mus musculus [51] = test: Effect on body temperature in mice at intraperitoneal dosage of 4 mg/kg, (compound administered 30 min before the test) after 75 min; assay type: functional

## COc1ccccc1N1CCN(CCCCn2nnc3ccccc32)CC1
Mus musculus [1]
  Delta t: 4.2 °C
Rattus norvegicus [2]
  Behavioral score: 6.1
Mus musculus [3]
  Delta t: 3.5 °C
Mus musculus [4]
  Delta t: 3.8 °C
Rattus norvegicus [5]
  LLR score: 2.4
Mus musculus [6]
  Delta t: 5.6 °C
[7]
  Ki: 17 nM
Rattus norvegicus [8]
  LLR score: 0.3
Mus musculus [9]
  Delta t: 5.6 °C
Mus musculus [10]
  Delta t: 3.9 °C
Rattus norvegicus [11]
  LLR score: 1.9
Rattus norvegicus [12]
  LLR score: 0.1
Mus musculus [13]
  Delta t: 2.7 °C
Mus musculus [14]
  Delta t: 5.2 °C
Rattus norvegicus [15]
  LLR score: 0.2
Mus musculus [16]
  Delta t: 5.3 °C
Mus musculus [17]
  Delta t: 3.2 °C
Rattus norvegicus [18]
  Behavioral score: 10.3
Rattus norvegicus [19]
  LLR score: 2.2
Rattus norvegicus [20]
  Behavioral score: 8.2
Rattus norvegicus [21]
  Selectivity: 9.4
Mus musculus [22]
  Delta t: 3.9 °C
Rattus norvegicus [23]
  LLR score: 2.1
Rattus norvegicus [24]
  Behavioral score: 3.6
Rattus norvegicus [25]
  LLR score: 0.7
Rattus norvegicus [26]
  Behavioral score: 12.7
Mus musculus [27]
  Delta t: 4.1 °C
[28]
  Ki: 160 nM
Rattus norvegicus [29]
  Behavioral score: 11

## COc1ccccc1N1CCN(CCCn2nc3ccccc3n2)CC1
Mus musculus [30]
  Delta t: 0.4 °C
Mus musculus [31]
  Delta t: 0.3 °C
Mus musculus [32]
  Delta t: 0.6 °C
Rattus norvegicus [2]
  Behavioral score: 4
Mus musculus [33]
  Delta t: 0.3 °C
Rattus norvegicus [5]
  LLR score: 2.2
Mus musculus [6]
  Delta t: 2 °C
Mus musculus [34]
  Delta t: 0.4 °C
Mus musculus [35]
  Delta t: 1.8 °C
Mus musculus [36]
  Delta t: 0.1 °C
Mus musculus [37]
  Delta t: 0.9 °C
[7]
  Ki: 24 nM
Rattus norvegicus [8]
  LLR score: 0.2
Mus musculus [9]
  Delta t: 1.3 °C
Mus musculus [38]
  Delta t: 1.4 °C
Rattus norvegicus [11]
  LLR score: 1.8
Mus musculus [39]
  Delta t: 0.3 °C
Rattus norvegicus [12]
  LLR score: 0.4
Mus musculus [13]
  Delta t: 0.7 °C
Mus musculus [14]
  Delta t: 0.9 °C
Rattus norvegicus [15]
  LLR score: 0.2
Mus musculus [16]
  Delta t: 2.6 °C
Mus musculus [40]
  Delta t: 0.1 °C
Rattus norvegicus [18]
  Behavioral score: 8
Rattus norvegicus [19]
  LLR score: 2.3
Rattus norvegicus [20]
  Behavioral score: 11.8
Rattus norvegicus [21]
  Selectivity: 66
Mus musculus [41]
  Delta t: 0.1 °C
Mus musculus [42]
  Delta t: 0.2 °C
Mus musculus [43]
  Delta t: 0.2 °C
Mus musculus [44]
  Delta t: 0.1 °C
Mus musculus [45]
  Delta t: 1.5 °C
Mus musculus [46]
  Delta t: 2 °C
Rattus norvegicus [23]
  LLR score: 1.8
Rattus norvegicus [24]
  Behavioral score: 4.8
Rattus norvegicus [25]
  LLR score: 0.3
Rattus norvegicus [26]
  Behavioral score: 12.4
Mus musculus [47]
  Delta t: 0.3 °C
Mus musculus [48]
  Delta t: 0.9 °C
Mus musculus [49]
  Delta t: 0.3 °C
[28]
  Ki: 1580 nM
Rattus norvegicus [29]
  Behavioral score: 13.8
Mus musculus [50]
  Delta t: 0.2 °C
Mus musculus [51]
  Delta t: 0.2 °C

## COc1ccccc1N1CCN(CCn2nnc3ccccc32)CC1
[7]
  Ki: 42 nM
Rattus norvegicus [21]
  Selectivity: 39
[28]
  Ki: 1620 nM

## CCCCN1CCN(c2ccccc2OC)CC1
[7]
  Ki: 57 nM
Rattus norvegicus [21]
  Selectivity: 40
[28]
  Ki: 2280 nM
